Measurements published in US20250144130A1, “POLYSACCHARIDE COMPOUND WITH A DEFINED MOLECULAR STRUCTURE THAT CAN ELIMINATE THE TOXIC SIDE EFFECTS OF CHEMOTHERAPY DRUGS” (priority 2023, published 2025).
Marks after values point to notes of the source that are not given here.

Key:
[1] = Mortality, body weight and organ coefficients in orthotopic H22-bearing mice; settings: radiotherapy 2 Gy/d + cisplatin 4 mg/kg ip q3d
Excerpt: (§1) Liver cancer (H22) cells, labeled with Luc fluorescent marker at a concentration of 1×10^7 cells/mL, were initially inoculated into the peritoneal cavity of 8 male C57 mice. After the development of ascites, the ascitic fluid was aseptically extracted, washed with HBSS buffer, centrifuged to discard the supernatant, and stained with Trypan Blue, and cells in the ascitic fluid were counted under a microscope. The cell concentration was adjusted to […] with HBSS buffer and inoculated into the right hepatic region of 80 male C57 mice, at a volume of 10 μL per mouse, to prepare the orthotopic tumor-bearing mice. One week later, the liver tumor formation in mice was detected using a small animal in vivo imaging system. […] An additional 10 mice served as the normal control group. Except for the normal control group, all other animals underwent radiotherapy using an animal radiotherapy instrument. The animals were anesthetized, placed in homemade lead clothing, and the tumor tissue was exposed for radiation treatment at an intensity of 2 Gy/day for 5 consecutive days. The normal control group and the model control group were administered pure water by oral gavage. […] After the last dose, blood was collected from the orbital plexus to test blood WBC, RBC, liver and kidney function indicators (ALT, AST, BUN, CRE), and CD3^+/CD4^+, CD3^+/CD8^+ ratios. The spleen, thymus, and tumors were weighed to calculate organ coefficients, and the liver, spleen, and thymus underwent histopathological examination.
Animal survival and general condition: Weight was recorded weekly, along with any deaths among the animals.
Immune organs: The thymus, spleen, tumor, and liver were weighed, and organ coefficients were calculated as follows: organ coefficient (%)=organ weight/fasting body weight×100%.

[2] = Mortality, body weight, spleen and thymus indices in H22-bearing mice; assay type: in vivo, C57 mice; settings: sc H22 mice, cisplatin 3 mg/kg ip q3d
Procedure: A homogenate suspension of H22 hepatoma solid tumors was injected subcutaneously under the axilla of 50 healthy male C57 mice to create a solid tumor model. Once all mouse tumors averaged a volume of about 200 mm^3, mice were randomized into groups based on tumor volume and were administered the respective drugs or drug solvents via oral gavage or intraperitoneal injection for 22 consecutive days. Longest and shortest diameters of tumors were measured every three days to calculate tumor volume, and mouse weights were recorded every three days. At the end of the experiment, tumors, spleens, and thymuses were harvested and weighed to calculate tumor, spleen, and thymus indices.
(§2) Spleen and thymus organ coefficients: After the last dose, spleen, thymus, and tumor weights are measured, and organ coefficients are calculated.
(§3) Immune organ index (mg/g)=(organ mass/body weight)×1000.

[3] = Histopathological examination of liver, spleen and thymus in orthotopic H22-bearing mice; assay type: in vivo, C57 mice; settings: radiotherapy 2 Gy/d + cisplatin 4 mg/kg ip q3d
Excerpt: as §1, with “The spleen, thymus, and tumors were weighed to calculate organ coefficients, and the liver, spleen, and thymus underwent histopathological examination.” left out

H22-bearing mice = test: Antitumor effect of GLP-3 combined with chemotherapy on H22-bearing mice (tumor volume, inhibition rates, tumor index); assay type: in vivo, C57 mice; settings: sc H22 mice, cisplatin 3 mg/kg ip q3d
Procedure: (§4) Longest and shortest diameters of tumors were measured every three days to calculate tumor volume, and mouse weights were recorded every three days. At the end of the experiment, tumors, spleens, and thymuses were harvested and weighed to calculate tumor, spleen, and thymus indices. […] [table] […] Where TRTV is the relative tumor volume in the experimental group, and CRTV is the relative tumor volume in the model control group. Relative tumor volume (RTV)=Vt/V0, where Vt is the tumor volume on day t of dosing, and V0 is the tumor volume at the time of grouping. Evaluation criteria: […] Where T represents the average tumor weight in the treatment group, and C represents the average tumor weight in the model control group. Evaluation criteria: […] Tumor index (%)=(tumor weight/body weight)×100%.

LLC-bearing mice = test: Antitumor effect of GLP-3 combined with chemotherapy on LLC-bearing mice (tumor volume, inhibition rates, tumor index); assay type: in vivo, C57 mice; settings: cisplatin 4 mg/kg ip q3d
Procedure: as §4, with “Healthy LLC cells were inoculated subcutaneously into the left shoulder of 5 healthy male C57 mice. […] This suspension was then injected subcutaneously into the axilla of 60 healthy male C57 mice to establish a solid tumor model. […] Longest” for “Longest”

[4] = tested on: lymphocyte subtypes CD3^+/CD4^+ and CD3^+/CD8^+; test: Blood CD3+/CD4+ and CD3+/CD8+ ratios by flow cytometry in orthotopic H22-bearing mice; assay type: in vivo, C57 mice; settings: radiotherapy 2 Gy/d + cisplatin 4 mg/kg ip q3d, after the last dose, Mean ± SEM
Procedure: CD4^+ and CD8^+ content measurement: After the last dose, lymphocyte subtypes CD3^+/CD4^+ and CD3^+/CD8^+ in the blood were measured using flow cytometry.

[5] = Mortality, body weight, spleen and thymus indices in LLC-bearing mice; assay type: in vivo, C57 mice; settings: cisplatin 4 mg/kg ip q3d
Procedure: Healthy LLC cells were inoculated subcutaneously into the left shoulder of 5 healthy male C57 mice. Once tumors reached a volume of 2,000-3,000 mm^3, they were harvested and homogenized to prepare a homogenate suspension. This suspension was then injected subcutaneously into the axilla of 60 healthy male C57 mice to establish a solid tumor model. Once all mouse tumors averaged a volume of about 150 mm^3, mice were randomized into groups based on tumor volume and were administered the respective drugs or drug solvents via oral gavage or intraperitoneal injection for 19 consecutive days. Longest and shortest diameters of tumors were measured every three days to calculate tumor volume, and mouse weights were recorded every three days. At the end of the experiment, tumors, spleens, and thymuses were harvested and weighed to calculate tumor, spleen, and thymus indices.
as §2, §3

[6] = tested on: orthotopic H22-bearing mice; test: Tumor by small animal in vivo imaging, GLP-3 combined with radiotherapy, orthotopic H22-bearing mice; set-up: species or system C57 mice; settings: radiotherapy 2 Gy/d + cisplatin 4 mg/kg ip q3d
Procedure: This study used the proposed clinical dose as a basis for the experiment. The radiotherapy intensity for this study was designed to be 2 Gy per day. [table] Tumor volume measurement: Tumor volume changes were measured weekly using small animal in vivo imaging technology.

[7] = after the last dose, Mean ± SEM

N.N.[Cl][Pt][Cl] [Cisplatin]
Mortality rate ([1]; 14 days): 60%
Number of deaths ([1]; 14 days): 6
Number of surviving animals ([1]; 14 days): 4
Weight ([1]; W0, Mean ± SEM): 17.1 ± 0.4^++ g
Weight ([1]; W1, Mean ± SEM): 13.6 ± 0.9**^ g
Weight ([1]; W2, Mean ± SEM): 14.6 ± 1.0 g
Liver coefficient [1, 7]: 7.962 ± 0.914 %
Spleen coefficient [1, 7]: 0.424 ± 0.140 %
Thymus coefficient [1, 7]: 0.039 ± 0.017%
Mortality rate ([2]; 22 days): 0.0%
Number of deaths ([2]; 22 days): 0
Survival time ([2]; 22 days): 22 ± 0 days
Weight ([2]; D0): 18.9 ± 0.8^+ g
Weight ([2]; D3): 19.9 ± 0.7 g
Weight ([2]; D6): 19.5 ± 0.6^+ g
Weight ([2]; D9): 19.6 ± 0.8 g
Weight ([2]; D12): 19.5 ± 0.8^+ g
Weight ([2]; D15): 19.2 ± 0.7^+ g
Weight ([2]; D18): 18.5 ± 0.9^+ g
Spleen index ([2]; after the last dose): 3.4 ± 0.3^+ mg/g
Thymus index ([2]; after the last dose): 0.6 ± 0.1 mg/g
Histopathology of liver, spleen and thymus [3]: extensive H22 cell infiltration and necrosis were observed along with increased extramedullary hematopoiesis in the spleen and a decreased number of white pulp cells, with a reduction in thymic lymphocyte counts
Tumor volume (H22-bearing mice; D0): 188.2 ± 48.7 mm^3
Relative tumor growth inhibition rate (compared to model control group) (H22-bearing mice; D3): 11.7%
Tumor volume (H22-bearing mice; D3): 338.6 ± 69.1 mm^3
Relative tumor growth inhibition rate (compared to model control group) (H22-bearing mice; D6): 19.5%
Tumor volume (H22-bearing mice; D6): 356.9 ± 77.9 mm^3
Relative tumor growth inhibition rate (compared to model control group) (H22-bearing mice; D9): 53.1^+ %
Tumor volume (H22-bearing mice; D9): 598.5 ± 219.2^+ mm^3
Relative tumor growth inhibition rate (compared to model control group) (H22-bearing mice; D9, listed as cisplatin): 53.1%
Relative tumor growth inhibition rate (compared to model control group) (H22-bearing mice; D12): 64.4^+ %
Relative tumor growth inhibition rate (compared to model control group) (H22-bearing mice; D12, listed as cisplatin): 64.4%
Relative tumor growth inhibition rate (compared to model control group) (H22-bearing mice; D15): 73.1^+ %
Tumor volume (H22-bearing mice; D15): 900.4 ± 376.4^+ mm^3
Relative tumor growth inhibition rate (compared to model control group) (H22-bearing mice; D15, listed as cisplatin): 73.1%
Relative tumor growth inhibition rate (compared to model control group) (H22-bearing mice; D18): 71.6^+ %
Tumor volume (H22-bearing mice; D18): 1098.3 ± 397^+ mm^3
Relative tumor growth inhibition rate (compared to model control group) (H22-bearing mice; D18, listed as cisplatin): 71.6%
Relative tumor growth inhibition rate (compared to model control group) (H22-bearing mice; D22): 75.0^+ %
Tumor volume (H22-bearing mice; D22): 1526.5 ± 535.7^+ mm^3
Relative tumor growth inhibition rate (compared to model control group) (H22-bearing mice; D22, listed as cisplatin): 75.0%
Tumor index (H22-bearing mice; after the last dose): 6.6 ± 2.2^+ %
Tumor growth inhibition rate vs. the model control group (H22-bearing mice; by average tumor weight): 75.7%
Tumor volume (LLC-bearing mice; D0): 137.9 ± 50^ mm^3
Relative tumor growth inhibition rate (compared to model control group) (LLC-bearing mice; D3): 4.3%
Tumor volume (LLC-bearing mice; D3): 300.1 ± 102.7 mm^3
Relative tumor growth inhibition rate (compared to model control group) (LLC-bearing mice; D6): 30.0%
Tumor volume (LLC-bearing mice; D6): 486.6 ± 188.9 mm^3
Relative tumor growth inhibition rate (compared to model control group) (LLC-bearing mice; D9): 54.6^+ %
Tumor volume (LLC-bearing mice; D9): 771.3 ± 256^+ mm^3
Relative tumor growth inhibition rate (compared to model control group) (LLC-bearing mice; D9, listed as cisplatin): 54.6%
Relative tumor growth inhibition rate (compared to model control group) (LLC-bearing mice; D12): 63.8^+ %
Tumor volume (LLC-bearing mice; D12): 1173.9 ± 488.8^+ mm^3
Relative tumor growth inhibition rate (compared to model control group) (LLC-bearing mice; D12, listed as cisplatin): 63.8%
Relative tumor growth inhibition rate (compared to model control group) (LLC-bearing mice; D15): 77.3^+ %
Tumor volume (LLC-bearing mice; D15): 1409.5 ± 820.5^+ mm^3
Relative tumor growth inhibition rate (compared to model control group) (LLC-bearing mice; D15, listed as cisplatin): 77.3%
Relative tumor growth inhibition rate (compared to model control group) (LLC-bearing mice; D19): 79.5^+ %
Tumor volume (LLC-bearing mice; D19): 1771.9 ± 1091.6^+ mm^3
Relative tumor growth inhibition rate (compared to model control group) (LLC-bearing mice; D19, listed as cisplatin): 79.5%
Tumor index (LLC-bearing mice; after the last dose): 9.09 ± 4.19^+ %
Tumor growth inhibition rate vs. the model control group (LLC-bearing mice; by average tumor weight): 74.4%
CD3^+/CD4^+ [4]: 23.05 ± 12.70
CD3^+/CD8^+ [4]: 126.56 ± 67.07
Mortality rate ([5]; 19 days): 0.0%
Number of deaths ([5]; 19 days): 0
Survival time ([5]; 19 days): 19 ± 0 days
Weight ([5]; D0): 21.5 ± 1.3 g
Weight ([5]; D3): 20.9 ± 1.3^ g
Weight ([5]; D6): 20.4 ± 1.9^+ g
Weight ([5]; D9): 18.3 ± 2.6^+ g
Weight ([5]; D12): 18.6 ± 2.8^+ g
Weight ([5]; D15): 17.7 ± 2.7^+ g
Weight ([5]; D19): 16.8 ± 2.8^+ g
Spleen index ([5]; after the last dose): 2.84 ± 0.77^+ mg/g
Tumor ([6]; W 0, Mean ± SEM): 766250 ± 515323
Tumor ([6]; W 1, Mean ± SEM): 5188000 ± 2224171
